Reference: the supplement of paper PMC8612539
Values after ≈ are worked out from the molar mass of the structure shown.

Key:
Pasteurella multocida = experiment: minimum inhibitory concentration (MIC)
Method: (§1)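 Broth microdilution MIC (Sensititre BOPO7F bovine plate, CLSI methods) of 19 antimicrobials against field isolates of P. multocida, M. haemolytica, H. somni (deep nasopharyngeal swabs) and E. coli, Enterococcus spp. (rectal swabs) from weaned dairy heifers. Incubation 16-24 h at 35 C. MIC is the lowest concentration preventing visible growth. Values with <= or > lie at the tested range limits. Trimethoprim-sulfamethoxazole is given as the trimethoprim component of a 1:19 mixture.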

Enterococcus spp. = experiment: minimum inhibitory concentration (MIC)
Method: as §1

CN(C)[C@@H]1C(O)=C(C(N)=O)C(=O)[C@@]2(O)C(O)=C3C(=O)c4c(O)cccc4[C@@](C)(O)[C@H]3C[C@@H]12 [Tetracycline]
minimum inhibitory concentration [µg/mL]
Conditions	Enterococcus spp.	Pasteurella multocida
isolate (source animal id): 2	1 (≈ 2.25 µM)	–
isolate (source animal id): 10	–	> 8
isolate (source animal id): 11	–	> 8
isolate (source animal id): 12	–	> 8
isolate (source animal id): 19	–	> 8
isolate (source animal id): 23	–	> 8
isolate (source animal id): 26	–	> 8
isolate (source animal id): 35	> 8	–
isolate (source animal id): 42	> 8	–
isolate (source animal id): 44	> 8	–
isolate (source animal id): 79	> 8	–
isolate (source animal id): 88	1 (≈ 2.25 µM)	–
isolate (source animal id): 91	2 (≈ 4.5 µM)	–
isolate (source animal id): 92	≤ 0.5	–
isolate (source animal id): 98	–	> 8
isolate (source animal id): 104	–	> 8
isolate (source animal id): 111	1 (≈ 2.25 µM)	–
isolate (source animal id): 115	–	> 8
isolate (source animal id): 117	–	> 8
isolate (source animal id): 118	–	> 8
isolate (source animal id): 121	–	> 8
isolate (source animal id): 122	> 8	–
isolate (source animal id): 123	> 8	–
isolate (source animal id): 124	–	> 8
isolate (source animal id): 125	–	> 8
isolate (source animal id): 128	–	> 8
isolate (source animal id): 131	–	> 8
isolate (source animal id): 133	> 8	–
isolate (source animal id): 135	–	> 8
isolate (source animal id): 136	–	> 8
isolate (source animal id): 140	–	> 8
isolate (source animal id): 144	–	> 8
isolate (source animal id): 146	–	> 8
isolate (source animal id): 150	–	> 8
isolate (source animal id): 151	–	> 8
isolate (source animal id): 153	–	> 8
isolate (source animal id): 155	–	> 8
isolate (source animal id): 157	–	> 8
isolate (source animal id): 158	> 8	–
isolate (source animal id): 160	–	> 8
isolate (source animal id): 164	–	> 8
isolate (source animal id): 165	–	> 8
isolate (source animal id): 167	–	> 8
isolate (source animal id): 168	> 8	> 8
isolate (source animal id): 169	> 8	4 (≈ 9 µM)
isolate (source animal id): 170	–	8 (≈ 18 µM)
isolate (source animal id): 171	≤ 0.5	8 (≈ 18 µM)
isolate (source animal id): 172	–	> 8
isolate (source animal id): 173	–	> 8
isolate (source animal id): 174	–	> 8
isolate (source animal id): 175	> 8	> 8
isolate (source animal id): 176	–	> 8
isolate (source animal id): 177	> 8	> 8
isolate (source animal id): 178	–	> 8
isolate (source animal id): 179	–	8 (≈ 18 µM)
isolate (source animal id): 181	> 8	–
isolate (source animal id): 182	> 8	> 8
isolate (source animal id): 183	> 8	–
isolate (source animal id): 187	> 8	–
isolate (source animal id): 190	> 8	–
isolate (source animal id): 192	–	> 8
isolate (source animal id): 193	–	> 8
isolate (source animal id): 194	≤ 0.5	–
isolate (source animal id): 195	> 8	> 8
isolate (source animal id): 196	–	> 8
isolate (source animal id): 197	> 8	> 8
isolate (source animal id): 198	–	> 8
isolate (source animal id): 199	–	8 (≈ 18 µM)
isolate (source animal id): 200	–	8 (≈ 18 µM)
isolate (source animal id): 201	–	8 (≈ 18 µM)
isolate (source animal id): 203	–	> 8
isolate (source animal id): 204	–	> 8
isolate (source animal id): 205	–	> 8
isolate (source animal id): 206	–	> 8
isolate (source animal id): 207	–	> 8
isolate (source animal id): 208	–	8 (≈ 18 µM)
isolate (source animal id): 209	–	> 8
isolate (source animal id): 210	–	> 8
isolate (source animal id): 211	> 8	–
isolate (source animal id): 213	–	8 (≈ 18 µM)
isolate (source animal id): 214	> 8	–
isolate (source animal id): 216	–	8 (≈ 18 µM)
isolate (source animal id): 222	> 8	–
isolate (source animal id): 223	≤ 0.5	> 8
isolate (source animal id): 227	–	> 8
isolate (source animal id): 228	> 8	–
isolate (source animal id): 229	–	> 8
isolate (source animal id): 230	> 8	–
isolate (source animal id): 233	–	> 8
isolate (source animal id): 234	–	> 8
isolate (source animal id): 235	> 8	–
isolate (source animal id): 236	≤ 0.5	–
isolate (source animal id): 237	–	> 8
isolate (source animal id): 239	≤ 0.5	–
isolate (source animal id): 241	> 8	> 8
isolate (source animal id): 244	≤ 0.5	–
isolate (source animal id): 245	–	> 8
isolate (source animal id): 246	> 8	–
isolate (source animal id): 247	> 8	> 8
isolate (source animal id): 250	> 8	> 8
isolate (source animal id): 252	> 8	–
isolate (source animal id): 254	–	> 8
isolate (source animal id): 255	–	> 8
isolate (source animal id): 258	–	> 8
isolate (source animal id): 261	–	> 8
isolate (source animal id): 262	–	> 8
isolate (source animal id): 268	1 (≈ 2.25 µM)	–
isolate (source animal id): 269	–	8 (≈ 18 µM)
isolate (source animal id): 270	–	> 8
isolate (source animal id): 274	–	> 8
isolate (source animal id): 275	–	> 8
isolate (source animal id): 276	–	> 8
isolate (source animal id): 277	–	8 (≈ 18 µM)
isolate (source animal id): 278	–	> 8
isolate (source animal id): 279	–	> 8
isolate (source animal id): 280	–	> 8
isolate (source animal id): 282	≤ 0.5	–
isolate (source animal id): 284	–	> 8
isolate (source animal id): 285	≤ 0.5	> 8
isolate (source animal id): 287	–	> 8
isolate (source animal id): 289	≤ 0.5	–
isolate (source animal id): 290	≤ 0.5	> 8
isolate (source animal id): 294	–	> 8
isolate (source animal id): 295	–	> 8
isolate (source animal id): 296	≤ 0.5	> 8
isolate (source animal id): 298	> 8	–
isolate (source animal id): 301	≤ 0.5	–
isolate (source animal id): 307	–	> 8
isolate (source animal id): 310	> 8	> 8
isolate (source animal id): 311	–	> 8
isolate (source animal id): 312	–	> 8
isolate (source animal id): 313	–	> 8
isolate (source animal id): 315	–	> 8
isolate (source animal id): 316	–	> 8
isolate (source animal id): 320	> 8	–
isolate (source animal id): 331	≤ 0.5	–
isolate (source animal id): 333	≤ 0.5	–
isolate (source animal id): 341	> 8	–
